Test results published in the NIST ThermoML archive (doi:10.1021/je9002306).

Columns and labels:
[1] = mn = molality of the nth substance listed, in mol/kg; conditions: 298.15 K, 101.3 kPa, Liquid, Vibrating tube method
[2] = cn = amount concentration of the nth substance listed, in mol/dm3; conditions: 298.15 K, 101.3 kPa, Liquid, Wayne-Kerr 6430B Auto Balance Bridge

CN(C)C=O [dimethylformamide] + CCCCCCCCn1cc[n+](C)c1.[Br-]
Conditions | mass density [kg/m3]
[1], m2 = 0 | 944.305

CCCCCCCCCCCCn1cc[n+](C)c1.[Br-] [1-dodecyl-3-methylimidazolium bromide] + C[S+](C)[O-]
Conditions | mass density [kg/m3] | molar conductivity [S·m2/mol]
[1], m1 = 0.00268 | 1095.36 | –
[1], m1 = 0.004967 | 1095.36 | –
[1], m1 = 0.007868 | 1095.37 | –
[1], m1 = 0.01038 | 1095.38 | –
[1], m1 = 0.01304 | 1095.39 | –
[1], m1 = 0.016 | 1095.41 | –
[1], m1 = 0.01873 | 1095.42 | –
[1], m1 = 0.02082 | 1095.43 | –
[1], m1 = 0.02457 | 1095.44 | –
[1], m1 = 0.02736 | 1095.46 | –
[2], c1 = 0.0003026 | – | 0.003442
[2], c1 = 0.0003758 | – | 0.003429
[2], c1 = 0.0004555 | – | 0.003416
[2], c1 = 0.0005343 | – | 0.003406
[2], c1 = 0.0006078 | – | 0.003397
[2], c1 = 0.0006771 | – | 0.003389
[2], c1 = 0.0007464 | – | 0.003381
[2], c1 = 0.0008059 | – | 0.003374
[2], c1 = 0.0009021 | – | 0.003365

CCCCCCCCn1cc[n+](C)c1.[Br-] [1-methyl-3-octylimidazolium bromide] + C[S+](C)[O-]
Conditions | mass density [kg/m3] | molar conductivity [S·m2/mol]
[1], m1 = 0.003697 | 1095.43 | –
[1], m1 = 0.007705 | 1095.54 | –
[1], m1 = 0.01147 | 1095.63 | –
[1], m1 = 0.01568 | 1095.74 | –
[1], m1 = 0.01953 | 1095.84 | –
[1], m1 = 0.02373 | 1095.95 | –
[1], m1 = 0.02785 | 1096.05 | –
[1], m1 = 0.03185 | 1096.15 | –
[1], m1 = 0.03581 | 1096.25 | –
[1], m1 = 0.03956 | 1096.34 | –
[2], c1 = 0.0002816 | – | 0.003566
[2], c1 = 0.0003649 | – | 0.003551
[2], c1 = 0.0004495 | – | 0.00354
[2], c1 = 0.0005343 | – | 0.003529
[2], c1 = 0.000601 | – | 0.003521
[2], c1 = 0.000699 | – | 0.00351
[2], c1 = 0.0007785 | – | 0.003501
[2], c1 = 0.0008592 | – | 0.003493
[2], c1 = 0.0009426 | – | 0.003485

CCCCCCCCCCn1cc[n+](C)c1.[Br-] [1-decyl-3-methylimidazolium bromide] + CN(C)C=O
Conditions | mass density [kg/m3] | molar conductivity [S·m2/mol]
[1], m1 = 0.004548 | 944.601 | –
[1], m1 = 0.009331 | 944.904 | –
[1], m1 = 0.01416 | 945.206 | –
[1], m1 = 0.01889 | 945.493 | –
[1], m1 = 0.02351 | 945.774 | –
[1], m1 = 0.02843 | 946.065 | –
[1], m1 = 0.03329 | 946.353 | –
[1], m1 = 0.03813 | 946.64 | –
[1], m1 = 0.04346 | 946.942 | –
[1], m1 = 0.04852 | 947.237 | –
[2], c1 = 0.0001732 | – | 0.007794
[2], c1 = 0.0002484 | – | 0.007742
[2], c1 = 0.0003119 | – | 0.007708
[2], c1 = 0.0003859 | – | 0.007672
[2], c1 = 0.0004585 | – | 0.007636
[2], c1 = 0.0005275 | – | 0.007607
[2], c1 = 0.0005939 | – | 0.007575
[2], c1 = 0.0006636 | – | 0.007549
[2], c1 = 0.0007275 | – | 0.007523
[2], c1 = 0.0007761 | – | 0.007502

CCCCCCCCCCn1cc[n+](C)c1.[Br-] [1-decyl-3-methylimidazolium bromide] + C[S+](C)[O-]
Conditions | mass density [kg/m3] | molar conductivity [S·m2/mol]
[1], m1 = 0.005147 | 1095.4 | –
[1], m1 = 0.00868 | 1095.45 | –
[1], m1 = 0.01336 | 1095.53 | –
[1], m1 = 0.01682 | 1095.59 | –
[1], m1 = 0.02087 | 1095.65 | –
[1], m1 = 0.02779 | 1095.77 | –
[1], m1 = 0.03347 | 1095.87 | –
[1], m1 = 0.04096 | 1096 | –
[1], m1 = 0.04462 | 1096.07 | –
[1], m1 = 0.05299 | 1096.22 | –
[2], c1 = 0.0002071 | – | 0.003508
[2], c1 = 0.0003447 | – | 0.003485
[2], c1 = 0.0004551 | – | 0.003472
[2], c1 = 0.000577 | – | 0.003459
[2], c1 = 0.0006934 | – | 0.003446
[2], c1 = 0.0008066 | – | 0.003433
[2], c1 = 0.0008974 | – | 0.003426
[2], c1 = 0.001043 | – | 0.003413
[2], c1 = 0.001234 | – | 0.003397

C[S+](C)[O-] [dimethyl sulfoxide] + CCCCCCCCCCCCn1cc[n+](C)c1.[Br-]
Conditions | mass density [kg/m3]
[1], m2 = 0 | 1095.35

CCCCCCCCCCCCn1cc[n+](C)c1.[Br-] [1-dodecyl-3-methylimidazolium bromide] + OCCO
Conditions | mass density [kg/m3] | molar conductivity [S·m2/mol]
[1], m1 = 0.003873 | 1109.91 | –
[1], m1 = 0.007663 | 1109.87 | –
[1], m1 = 0.01013 | 1109.85 | –
[1], m1 = 0.0133 | 1109.82 | –
[1], m1 = 0.0168 | 1109.78 | –
[1], m1 = 0.02023 | 1109.75 | –
[1], m1 = 0.03123 | 1109.63 | –
[1], m1 = 0.03429 | 1109.6 | –
[2], c1 = 0.000348 | – | 0.000654
[2], c1 = 0.0004233 | – | 0.000653
[2], c1 = 0.0004995 | – | 0.000652
[2], c1 = 0.0005785 | – | 0.00065
[2], c1 = 0.0006521 | – | 0.000649
[2], c1 = 0.0007213 | – | 0.000648
[2], c1 = 0.0008076 | – | 0.000646
[2], c1 = 0.0008687 | – | 0.000645
[2], c1 = 0.0009337 | – | 0.000644
[2], c1 = 0.001012 | – | 0.000643
